From patent US5155110A, “Fenamic acid hydroxamate derivatives having cyclooxygenase and 5-lipoxygenase inhibition” (Warner-Lambert Company, priority 1988, dated 1992)
Read-outs that look alike come from different tables or passages of the source.

What was measured:
[1] = tested on: Mycobacterium-induced rat footpad edema; test: Mycobacterium-Induced Rat Footpad Edema Assay (MFE); assay type: in vivo; settings: PO, one hour before Mycobacterium and Days 1 and 2, swelling at 72 hours, read-out: MFE ID40
Experimental: Mycobacterium--Induced Rat Footpad Edema Assay (MFE): Protocol
Myobacterium butyricum (5 mg/ml) is suspended in paraffin oil by sonication for ten minutes in an ice bath. Footpad edema is induced on Day 0 by injecting 0.1 ml of the Mycobacterium mixture into the left hindpaw of lightly anesthetized rats. Swelling in the injected hindpaw is determined by mercury plethysmography 72 hours after injection. Groups of rats are treated with test compounds (suspended in 0.5% hydroxypropyl methylcellulose with 0.2% Tween-80) or vehicle one hour before Myobacterium injection and on Days 1 and 2. Inhibition of swelling is determined by comparing the change in hindpaw volume in compound- and vehicle-treated rats. […] (the dose at which swelling is inhibited by 40%) was calculated by probit analysis.

[2] = tested on: gastric ulcers in rats; test: Gastric Ulcerogenicity (UD); assay type: in vivo, rat; settings: @ 200 mg/kg PO, fasted male Wistar rats, six hours
Experimental: (§1) Gastric Ulcerogenicity (UD)
(§2) Male outbred Wistar rats (100-250 gms) were fasted for 24 hours. After fasting, test compounds were administered orally (in 2 ml/kg of 0.5% hydroxypropyl methylcellulose) and the rats were denied access to food and water for six more hours. The rats were then sacrificed with CO2 so that the stomachs could be removed, opened along the greater curvature, and evaluated for the presence of gastric ulcers. Results are expressed as the percent of rats with gastric ulcers at a given dose.

[3] = biological target: T1, 5-lipoxygenase (Rattus norvegicus, UniProt P12527); test: ARBL whole cell 5-lipoxygenase assay (LTB4 formation in RBL-1 cells); assay type: cell-based; settings: RBL-1 whole cells; for IC50: A23187 5 μM, read-out: ARBL IC50 for LTB4 inhibition
T1 construct: host or cells: RBL-1 (rat basophilic leukemia)
T1 sequence (P12527 1-673): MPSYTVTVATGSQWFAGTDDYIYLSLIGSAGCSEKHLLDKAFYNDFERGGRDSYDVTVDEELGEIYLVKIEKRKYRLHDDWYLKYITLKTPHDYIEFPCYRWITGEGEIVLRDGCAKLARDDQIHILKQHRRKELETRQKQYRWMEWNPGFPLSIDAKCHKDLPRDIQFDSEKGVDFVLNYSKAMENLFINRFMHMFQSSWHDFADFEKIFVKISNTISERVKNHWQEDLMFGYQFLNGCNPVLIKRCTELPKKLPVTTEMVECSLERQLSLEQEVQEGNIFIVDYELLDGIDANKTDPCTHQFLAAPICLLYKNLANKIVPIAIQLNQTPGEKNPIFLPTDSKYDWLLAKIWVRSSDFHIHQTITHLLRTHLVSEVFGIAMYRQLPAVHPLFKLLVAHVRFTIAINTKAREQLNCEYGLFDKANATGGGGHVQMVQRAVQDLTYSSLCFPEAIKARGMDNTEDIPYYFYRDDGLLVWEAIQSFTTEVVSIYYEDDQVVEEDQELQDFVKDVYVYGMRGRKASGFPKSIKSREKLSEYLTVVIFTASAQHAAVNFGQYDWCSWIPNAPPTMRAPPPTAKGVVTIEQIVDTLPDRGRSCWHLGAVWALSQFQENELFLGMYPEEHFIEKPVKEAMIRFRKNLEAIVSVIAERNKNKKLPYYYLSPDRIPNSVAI
Experimental: (§3) ARBL/ARBC Whole Cell 5-Lipoxygenase and Cyclooxygenase Assays
(§4) The rat basophilic leukemia cell line (RBL-1) was obtained from the American Type Culture Collection (Rockville, Md.).
(§5) Radioimmuno assay (RIA) kits of LTB4 and PGF2.sbsb.α were obtained from Amersham (Arlington Heiqhts, Ill.) and Seragen (Boston, Mass.) respectively.
(§6) All tissue culture media were obtained from GIBCO (Grand Island, N.Y.).
(§7) RBL-1 cells are grown in suspension culture in Eagle's minimum essential medium supplemented with 12% fetal bovine serum at 37° C. in an incubator supplied with air-5% carbon dioxide. Cells are harvested by centrifugation. They are washed with cold phosphate buffered saline pH 7.4 (PBS; NaCl, […]; Na2 HPO4, 1.15 g; KH2 PO4, 0.2 g; and KCl, 0.2 g/l). Cells are finally suspended in PBS containing 1.0 mM calcium at a density of 2×10^6 cells/ml. Cells are incubated with and without test agent (in DMSO) (1% DMSO is without effect on arachidonic acid metabolism) for ten minutes at room temperature. Calcium ionophore A23187 (5 μM) is added and cells are incubated for seven minutes at 37° C. The reaction is stopped by chilling the tubes on ice for ten minutes. Cells are separated by centrifugation and the supernatant is stored at -20°. Aliquots (100 μl) are analyzed for LTB4 and PGF2.sbsb.α using radioimmuno assay kits as provided by the supplier.

[4] = tested on: carrageenan-induced rat foot paw edema; test: Carrageenan-Induced Rat Foot Paw Edema (CFE-2); assay type: in vivo; settings: 5 h, read-out: CFE-2 ID25
Experimental: Carrageenan-Induced Rat Foot Paw Edema2 (CFE2)
Carrageenan solution (1% w/v) is prepared by dissolving 100 mg carrageenan (Marine Colloidal Div., Springfield, N.J.) in 10 ml of sterile saline (0.9%) solution (Travenol). The solution is vortexed for 30 to 45 minutes. Animals are dosed with compound one hour before carrageenan challenge. Foot paw edema is induced by injecting 0.05 ml of the 1% carrageenan subcutaneously into the plantar portion of the right hind paw of each rat under light anesthesia. Initial foot paw volume is measured immediately following carrageenan challenge using mercury plethysmography (Buxco Electronics). Edema is measured five hours after carrageenan. The difference between the five-hour and the initial paw volume is expressed as delta edema. The delta edema for each test group of animals is used to calculate the percent inhibition of edema achieved by the compound at the test dose compared with the vehicle control group. The ID25 (the dose at which swelling is inhibited by 25%) was calculated by probit analysis for the dose at which a result of 25 percent inhibition occurs.

[5] = biological target: T2, cyclooxygenase (Rattus norvegicus, UniProt Q63921); test: ARBC whole cell cyclooxygenase assay (PGF2α formation in RBL-1 cells); assay type: cell-based; settings: RBL-1 whole cells; for IC50: A23187 5 μM, read-out: ARBC IC50 for PGF2α inhibition
T2 construct: host or cells: RBL-1 (rat basophilic leukemia)
T2 sequence (Q63921 27-602): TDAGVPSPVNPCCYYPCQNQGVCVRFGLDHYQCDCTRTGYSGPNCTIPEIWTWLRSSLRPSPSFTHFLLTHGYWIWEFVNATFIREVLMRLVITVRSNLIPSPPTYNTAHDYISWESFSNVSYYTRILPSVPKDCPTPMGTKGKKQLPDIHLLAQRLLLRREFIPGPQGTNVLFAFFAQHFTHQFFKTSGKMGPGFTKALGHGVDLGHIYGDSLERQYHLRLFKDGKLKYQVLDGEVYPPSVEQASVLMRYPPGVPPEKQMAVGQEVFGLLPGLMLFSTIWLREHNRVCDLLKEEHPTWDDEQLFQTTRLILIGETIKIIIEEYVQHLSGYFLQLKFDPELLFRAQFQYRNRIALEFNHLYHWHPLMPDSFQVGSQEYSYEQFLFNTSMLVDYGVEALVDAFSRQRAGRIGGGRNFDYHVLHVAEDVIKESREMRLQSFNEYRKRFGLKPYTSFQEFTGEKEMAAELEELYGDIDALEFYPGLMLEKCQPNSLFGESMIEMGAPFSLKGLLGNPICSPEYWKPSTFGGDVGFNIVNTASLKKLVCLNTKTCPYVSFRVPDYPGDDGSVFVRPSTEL
Experimental: as §3, §4, §5, §6
as §7, with “Cells are finally suspended in PBS containing 1.0 mM calcium at a density of 2×10^6 cells/ml. Cells are incubated with and without test agent (in DMSO) (1% DMSO is without effect on arachidonic acid metabolism) for ten minutes at room temperature.” left out

[6] = Gastric Ulcerogenicity (UD); assay type: in vivo, rat; settings: rat, in vivo; fasted male Wistar rats, PO, six hours; read-out: UD50 (dose which produces a 50% occurrence of ulcers in rats)
Experimental: as §1, §2

[7] = rat, PO, dosed one hour before carrageenan, edema at five hours

| Structure (SMILES) | IC50 [3] [µM] | ED40 [1] [mg/kg] | UD: percent of rats with gastric ulcers [2] | also measured |
| --- | --- | --- | --- | --- |
| Cc1ccc(Cl)c(Nc2ccccc2C(=O)N(O)Cc2ccccc2)c1Cl [Example 1, 2-[(2,6-Dichloro-3-methylphenyl)amino]-N-hydroxy-N-phenylmethylbenzamide] |  | 27 | N (N is 0% of rats have ulcers occurring at 200 mg.) |  |
| Cc1cccc(Nc2ccccc2C(=O)NO)c1C [Example 9, 2-[(2,3-dimethylphenyl)amino]-N-hydroxybenzamide] | 1.8 |  |  | inhibition at 0.5 µM ([5]; @ 0.5 μM): 60% |
| O=C(NO)c1ccccc1Nc1c(Cl)cccc1Cl [Example 10, 2-[(2,6-dichlorophenyl)amino]-N-hydroxybenzamide] |  |  |  | inhibition at 16 µM ([3]; @ 16 μM): 88%; inhibition at 16 µM ([5]; @ 16 μM): 80% |
| Cc1ccc(Cl)c(N2CN(O)C(=O)c3ccccc32)c1Cl [Example 35, 1-(2,6-dichloro-3-methylphenyl)-2,3-dihydro-3-hydroxy-4(1H)-quinazolinone] | 3.2 |  |  | IC50 [5]: 2.2 µM |
| Cc1ccc(Cl)c(N2C(=O)C(=NO)c3ccccc32)c1Cl [Example 49, 1-(2,6-Dichloro-3-methylphenyl)-lH-indole-2,3-dione-3-oxime] | 6.5 |  |  | IC50 [5]: 28 µM |
| Cc1ccc(Cl)c(Nc2ccccc2C(=O)O)c1Cl [Meclomen, reference compound] | 24 | 0.39 |  | ED25 ([4]; Rattus norvegicus, po): 8.2 mg/kg; TD50 at 6 h [6]: 36 mg/kg |

Continued, in another order:

| IC50 [3] [µM] | Structure (SMILES) | ED40 [1] [mg/kg] | UD: percent of rats with gastric ulcers [2] | also measured |
| --- | --- | --- | --- | --- |
| 3.9 | Cc1ccc(Cl)c(Nc2ccccc2C(=O)NO)c1Cl [Example 2, 2-[(2,6-dichloro-3-methylphenyl)amino]-N-hydroxybenzamide] | 2.5 | N (N is 0% of rats have ulcers occurring at 200 mg.) | ED25 [4, 7]: 0.2 mg/kg |
| 1.5 | Cc1ccc(Cl)c(Nc2ccccc2C(=O)N(C)O)c1Cl [Example 3, 2-[(2,6-dichloro-3-methylphenyl)amino]-N-hydroxy-N-methylbenzamide] | 24 | N (N is 0% of rats have ulcers occurring at 200 mg.) | ED25 [4, 7]: 1.3 mg/kg |
| 16 | CONC(=O)c1ccccc1Nc1c(Cl)ccc(C)c1Cl [Example 4, Ortho-2,6-dichloro-3-methylanilinobenzhydroxamic acid O-methyl ether] |  |  |  |
